Data on two compounds can be found in paper PMC3885546, “Structural Determinants of the 5′-Methylthioinosine Specificity of Plasmodium Purine Nucleoside Phosphorylase” (PLoS ONE, 2014).

Changes are numbered by the printed parent chain. Read-outs that look alike come from different tables or passages of the source.

The subject of one assay is TgPNP. The note with it: cited from earlier work; for Km / kcat: substrate = label.
The target in another assay is T1, PfPNP His7Ala (Plasmodium falciparum, UniProt Q8I3X4, H7A).
T1 construct: made in house; host or cells: Escherichia coli Top 10
T1 sequence (Q8I3X4 1-245 H7A): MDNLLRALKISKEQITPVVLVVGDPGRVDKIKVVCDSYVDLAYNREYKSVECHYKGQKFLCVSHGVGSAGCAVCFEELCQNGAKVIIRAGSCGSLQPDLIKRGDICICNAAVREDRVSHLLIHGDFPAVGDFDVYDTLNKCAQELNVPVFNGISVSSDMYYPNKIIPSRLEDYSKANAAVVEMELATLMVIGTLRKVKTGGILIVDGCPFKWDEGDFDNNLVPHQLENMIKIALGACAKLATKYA
Nature of the assay: Substrate kinetics, coupled assay. Particulars: for Km / kcat: substrate = label. The assay is classed as biochemical. The method, then:
(§1) Kinetic assays were completed in 50 mM KH2PO4 at pH 7.4 measuring phosphorylysis of inosine or MTI by PNP in a coupled reaction with 60 milliunits/ml xanthine oxidase to convert hypoxanthine to uric acid. Formation of uric acid was measured at 293 nm wavelength (E293 = 12.9 mM^−1 cm^−1), [20]. In cases where activity for MTI was low, increased protein concentration (10 µg/ml) was used to check enzyme function. Assays were performed with excess substrate in the presence of inhibitors. Inhibition studies measured both initial (Ki) and slow onset inhibition (Ki*) for inhibitors. The initial onset inhibition was analyzed by using the following equation: ν ο = (k cat×S)/(K m(1+I/Ki)+S), ν ο is the steady state rate, k cat catalytic rate, S is substrate concentration, Km is Michealis constant for inosine, I is inhibitor concentration, and Ki is the equilibrium dissociation constant.

A further assay addresses T2, PfPNP Val73Phe (Plasmodium falciparum, UniProt Q8I3X4, V73F).
T2 construct: made in house; host or cells: Escherichia coli Top 10
T2 sequence (Q8I3X4 1-245 V73F): T1 sequence (Q8I3X4 1-245 H7A) with A7H, V73F
Nature of the assay: Substrate kinetics, coupled assay. It is filed as biochemical. On the set-up: key: (-): Activity not detected under the experimental conditions. Particulars: substrate = label. As for the experimental part: as §1

A further assay concerns the target T3, PfPNP Arg45Ala (Plasmodium falciparum, UniProt Q8I3X4, R45A).
T3 construct: made in house; host or cells: Escherichia coli Top 10
T3 sequence (Q8I3X4 1-245 R45A): T1 sequence (Q8I3X4 1-245 H7A) with A7H, R45A
Nature of the assay: Substrate kinetics, coupled assay. The assay is classed as biochemical. Further details: key: (-): Activity not detected under the experimental conditions. The note with it: substrate = label. The method, then: as §1

For a further assay, the target named is T4, PfPNP Asp206Ala (Plasmodium falciparum, UniProt Q8I3X4, D206A).
T4 construct: made in house; host or cells: Escherichia coli Top 10
T4 sequence (Q8I3X4 1-245 D206A): T1 sequence (Q8I3X4 1-245 H7A) with A7H, D206A
Nature of the assay: Substrate kinetics, coupled assay. It is filed as biochemical. On the set-up: key: (-): Activity not detected under the experimental conditions. The note with it: substrate = label. As for the experimental part: as §1

For another assay, the target named is T5, PfPNP Met183Ala (Plasmodium falciparum, UniProt Q8I3X4, M183A).
T5 construct: made in house; host or cells: Escherichia coli Top 10
T5 sequence (Q8I3X4 1-245 M183A): T1 sequence (Q8I3X4 1-245 H7A) with A7H, M183A
Nature of the assay: Substrate kinetics, coupled assay. The assay is classed as biochemical. Further details: key: (-): Activity not detected under the experimental conditions. The note with it: substrate = label. As for the experimental part: as §1

A further assay deals with T6, PfPNP Val66Phe (Plasmodium falciparum, UniProt Q8I3X4, V66F).
T6 construct: made in house; host or cells: Escherichia coli Top 10
T6 sequence (Q8I3X4 1-245 V66F): T1 sequence (Q8I3X4 1-245 H7A) with A7H, V66F
Nature of the assay: Substrate kinetics, coupled assay. Particulars: for kcat / Km / kcat/Km: substrate = label. On the set-up: key to Km / kcat / kcat/Km: (-): Activity not detected under the experimental conditions. It is filed as biochemical. As for the experimental part:
as §1

The next assay deals with T7, PfPNP (wild type) (Plasmodium falciparum, UniProt Q8I3X4).
T7 construct: made in house; host or cells: Escherichia coli Top 10
T7 sequence (Q8I3X4 1-245): T1 sequence (Q8I3X4 1-245 H7A) with A7H
Nature of the assay: Substrate kinetics, xanthine oxidase coupled phosphorolysis assay. The assay is classed as biochemical. As for the experimental part:
as §1

Take `OC[C@H]1O[C@@H](n2cnc3c(O)ncnc32)[C@H](O)[C@@H]1O` [Inosine, inosine]: the “Ino/MTI kcat/Km Ratio” value in the assay with TgPNP (ref Chaudhary, et al. [18]) is given as 230; on PfPNP His7Ala, 2.2; on PfPNP (wild type) it was 1.6. The Km in the assay with TgPNP (ref Chaudhary, et al. [18]) is 13 ± 1 µM; at PfPNP His7Ala, 45 ± 7 µM; on PfPNP Val73Phe, “(-)”; at PfPNP Arg45Ala (read-out: Km) it was 470 ± 291 µM; at PfPNP Asp206Ala (read-out: Km), 63 ± 6 µM; at PfPNP Met183Ala (read-out: Km) it was 260 ± 64 µM. In addition, at PfPNP Val66Phe (read-out: Km), the Km came to 1.5 ± 0.41 mM. Further, the kcat with TgPNP (ref Chaudhary, et al. [18]) was 2.6 ± 0.0 s⁻¹; at PfPNP His7Ala, 1.1 ± 0.5 s⁻¹; at PfPNP Val73Phe it was “(-)”; on PfPNP Arg45Ala, 0.05 ± 0.03 s⁻¹; at PfPNP Asp206Ala, 0.04 ± 0.01 s⁻¹; at PfPNP Met183Ala it was 0.4 ± 0.3 s⁻¹. The kcat at PfPNP Val66Phe is 5.7 ± 3.4 s⁻¹. Besides, the kcat/Km entry at PfPNP Val73Phe was “(-)”. Besides, the “Km greater than for wildtype PfPNP” value on PfPNP Val66Phe is listed as roughly 100 fold.
Take 5′-methylthioinosine: the “efficiency for MTI when compared to inosine” value with TgPNP was less than 0.5%. For the same compound, the Km with TgPNP (ref Chaudhary, et al. [18]) is 31 ± 3 µM; at PfPNP His7Ala it was 2.6 ± 2 µM; on PfPNP Val73Phe, “(-)”; on PfPNP Arg45Ala, “(-)”; at PfPNP Asp206Ala, “(-)”; on PfPNP Met183Ala, “(-)”. The Km result was “(-)” at PfPNP Val66Phe and 8.8 ± 0.2 µM on PfPNP (wild type) (substrate = label, 50 mM KH2PO4 pH 7.4, mean ± SD). Moreover, the kcat in the assay with TgPNP (ref Chaudhary, et al. [18]) is 0.03 ± 0.00 s⁻¹; on PfPNP His7Ala, 0.29 ± 0.21 s⁻¹; on PfPNP Val73Phe, “(-)”; at PfPNP Arg45Ala it was “(-)”; at PfPNP Asp206Ala it was “(-)”; on PfPNP Met183Ala, “(-)”. The kcat entry on PfPNP Val66Phe was “(-)”; on PfPNP (wild type) (substrate = label), 0.83 ± 0.03 s⁻¹. Besides, the kcat/Km entry is reported as “(-)” at PfPNP Val73Phe; “no activity” at PfPNP Val73Phe (listed as MTI); “(-)” on PfPNP Arg45Ala; “(-)” on PfPNP Asp206Ala; “(-)” at PfPNP Met183Ala; “no detectable activity” at PfPNP Met183Ala (listed as MTI). The kcat/Km entry is “(-)” at PfPNP Val66Phe and “no detectable activity” on PfPNP Val66Phe (listed as MTI).
